Assays:
[1] = Acute toxicity test (LD50, Litchfield-Wilcoxon), mice; conditions: mouse, in vivo, ip, intraperitoneal
Experimental: (§1) Toxicity tests were carried out by intraperitoneal administration of the compound of the present invention to groups each comprising 10 ICR-strain mice and SD-strain rats. LD50 was calculated by the Litchfield-Wilcoxon method based on the number of death 72 hours after the administration.

[2] = Acute toxicity test (LD50, Litchfield-Wilcoxon), rats; conditions: rat, in vivo, ip, intraperitoneal
Experimental: as §1

SART stress mice = assay: Inhibitory effects on increase of heart rate and elongation of QRS-time in SART stress mice; assay type: in vivo, mice (dd-strain male); conditions: 100 mg/kg/day, 9th day, Average ± S.D.
Experimental: SART stress animals used in the tests described below were raised according to a method of Kita, et al. [Folia Pharmacol. Japan.: 71, 195-210 (1975)].
2. Inhibitory effects on increase of heart rate and elongation of QRS-time in stress animals:
Groups of mice each comprising 11 or 12 dd-strain male mice were divided into three groups in the same manner as above and heart rate and QRS-time were determined on the 9th day after initiation of the tests.

dd-strain male mice [3] = assay: Inhibitory effect on spontaneous motor activities (Animex method); assay type: in vivo; conditions: after 60 minutes
Experimental: 4.1 Inhibitory effect on spontaneous motor activities:
Groups each comprising 8-16 dd-strain male mice were used. The compounds of the present invention were given intraperitoneally. After 60 minutes, spontaneous motor activities for 15 minutes were measured by the Animex method.

dd-strain male mice [4] = assay: Inhibitory effect on exploratory movements; assay type: in vivo; conditions: 150 mg/kg intraperitoneal, after 60 minutes
Experimental: 4.2. Inhibitory effect on exploratory movements:
Groups each comprising 16-35 dd-strain male mice were used. The compounds of the present invention were given intraperitoneally. After 60 minutes, exploratory movements for 15 minutes were measured with an exploratory movement recorder by a method of Tokyo Kyoiku University.

[5] = system: normal mice and SART stress mice; assay: Analgesic effect, tail pressure method (Randall-Selitto's device); assay type: in vivo, mice (ddY-strain male); conditions: Mus musculus; for change in vivo at 100 mg/kg / change in vivo at 200 mg/kg: ip; for change in vivo at 200 mg/kg: intraperitoneal 200 mg/kg; for change in vivo at 500 mg/kg: po, peroral 500 mg/kg
Experimental: 5.1 Tail pressure method:
Randall-Selitto's device for determining analgesic effect by pressure stimulation was used. […]. The compounds of the present invention or other comparative drugs were given thereto and analgesic effect was determined. The effect was judged by measuring pressure applied 60 minutes after the intraperitoneal administration of the compounds of the present invention. The pressure thus measured was divided by a pressure before the administration. The value thus obtained was compared with that of a control group (to which 10 ml./Kg of 0.5% sodium salt of carboxymethylcellulose or 0.5% Tween 80 was given). When the compounds of the present invention were given perorally and other comparative drugs were given, an average of the pressure at 30, 60, 90 and 120 minutes after the administration was employed for evaluating the effect.

[6] = system: normal mice and SART stress mice; assay: Analgesic effect, acetic acid writhing method; assay type: in vivo; conditions: Mus musculus, sc, 100 mg/Kg subcutaneously
Experimental: 5.2. Acetic acid writhing method: 0.1 ml./10 g of isotonic sodium chloride solution containing 0.7% acetic acid was given intraperitoneally to groups of mice each comprising 5 normal mice and 5 SART stress mice to which SART stress had been applied for 8 days. Writhing syndromes number appeared for 15 minutes after the administration was measured. The effect was evaluated by giving 100 mg/Kg of the compounds of the present invention or DPH subcutaneously and comparing the writhing syndromes number of the mice with that of control mice.

[7] = system: normal mice and SART stress mice; assay: Analgesic effect, D'Amour-Smith method; assay type: in vivo, mice (ddY-strain male); conditions: Mus musculus; for responders at 200 mg/kg: ip, intraperitoneal 200 mg/kg; for responders at 500 mg/kg: po, peroral 500 mg/kg
Experimental: 5.3. D'Amour-Smith method:
Groups each comprising 10 ddY-strain male normal mice and SART stress mice to which SART stress had been applied for 4 days were used. The root of the tail of the mouse to which black ink was applied was irradiated with infrared rays for up to 15 seconds. Time required till escape response was observed was measured. The effect was shown by the ratio of the mice in which an average value of the response time at 30, 60, 90 and 120 minutes after the administration of the compounds of the present invention or other comparative drugs was prolonged to at least 2 times as long as the time before the administration.

dd-strain male mice [8] = assay: Antiulcerogenic effect on Takagi's restraint-plus-water-immersing ulcer; assay type: in vivo
Experimental: 6.1 Antiulcerogenic effect on Takagi's restraint-plus-water-immersing ulcer: Groups each comprising 8-26 dd-strain male mice were used. The tests were carried out according to a method of Takagi, et al. [Chem. Pharm. Bull.; 12, 465 (1964)]. Sum of length of diseased parts in the glandular stomach was measured and it was compared with that of control group. The compounds of the present invention or DPH was given intraperitoneally immediately before the restraint and immersion in water.

Wistar-strain male rats = assay: Antiulcerogenic effect on Shay's ulcer (operative ulcer); assay type: in vivo; conditions: 10 times
Experimental: 6.2. Antiulcerogenic effect on Shay's ulcer (operative ulcer):
Tests were carried out by using groups of rats each comprising 5-10 Wistar-strain male rats according to Shay method [Shay Harry; Gastroenterology,; 5, 43 (1945)]. Ulcers in the anterior stomach were classified on the following basis:
2. 1-5 small ulcers (diameter of less than 3 mm)
3. 6 or more small ulcers or one big ulcer (diameter of more than 3 mm)
4. two or more big ulcers

ddY-strain male mice = assay: Effect of prolongation of sleeping time (hexobarbital); assay type: in vivo; conditions: for change in vivo at 100 mg/kg: 100 mg/kg intraperitoneal
Experimental: 7. Effect of prolongation of sleeping time:
Groups of mice each comprising 10 ddY-strain male mice were used. Sodium salt of hexobarbital was given intraperitoneally. Thereafter, the period of time in which righting reflex disappeared was measured. The effect was evaluated on the basis of prolongation of time of disappearance of righting reflex by the intraperitoneal administration of the compounds of the present invention as compared with control mice.

dd-strain male mice [9] = assay: Inhibitory effect on Tremorine-induced tremor; assay type: in vivo; conditions: tremorine 10 mg/Kg
Experimental: 9. Inhibitory effect on Tremorine-induced tremor:
Groups of mice each comprising 10-40 dd-strain male mice were used. Effect of the compounds of the present invention on tremor caused by tremorine was examined. The compounds of the present invention or DPH was given intraperitoneally. 45 minutes thereafter, 10 mg/Kg of tremorine was given intraperitoneally for inducing the tremor.

[10] = system: normal rats and SART stress rats; assay: Analgesic effect, pain induced by Bradykinin; assay type: in vivo, rats (SD-strain male)
Experimental: 5.4 Method of measuring a pain induced by Bradykinin:
Groups each comprising 4-8 SD-strain male normal rats and SART stress rats to which SART stress had been applied for 4 days were used. The tests were carried out according to the method of Deffenu et al. [Deffenu, G., Pegrassi, L., & Fumachi. B.; J. Pharm. Pharmacol.; 18, 135 (1966)] and Blane method [Blane, G. F.; J. Pharm. Pharmacol.; 19, 367 (1967)]. The effect judged was shown by ratio of the rats in which the effect was recognized according to the method of Abe, et al. [Abe, Kaneko & Takagi; Folia Pharmacol. Japon.; 67, 9-14 (1971)].

[11] = system: spontaneously hypertensive rats (SHR); assay: Antihypertensive effect in spontaneously hypertensive rats; assay type: in vivo; conditions: 150 mg/Kg intraperitoneal, 60 minutes
Experimental: 8. Antihypertensive effect: Groups of rats each comprising 6-9 spontaneously hypertensive rats (SHR) were used. The compounds of the present invention or DPH was given intraperitoneally. The rate of antihypertension 60 minutes after the administration was determined.

O=C1NC(=O)C(c2ccc(O)cc2)(c2cccs2)N1 (centres unmarked) [Compound 1, 5-(4-Hydroxyphenyl)-5-(2-thienyl)hydantoin]
LD50 at 72 h ([1]; female): 2000 to 3000 mg/kg | LD50 at 72 h ([1]; male): > 3000 mg/kg | LD50 at 72 h ([2]; female): > 3000 mg/kg | LD50 at 72 h ([2]; male): > 3000 mg/kg | Heart rate (SART stress mice): 741 ± 39 min⁻¹ | QRS-time (SART stress mice): 13.9 ± 0.8 1/1000 sec | Inhibitory effect on spontaneous motor activities (dd-strain male mice [3]; 50 mg/kg intraperitoneal): 22.4% | Inhibitory effect on spontaneous motor activities (dd-strain male mice [3]; 150 mg/kg intraperitoneal): 30.7% | Inhibitory effect on exploratory movements (dd-strain male mice [4]): 33.2% | change in vivo at 100 mg/kg ([5]; 1 h, SART stress mice, intraperitoneal 100 mg/kg, 60 minutes): 82.3% | change in vivo at 100 mg/kg ([5]; 1 h, normal mice, intraperitoneal 100 mg/kg, 60 minutes): 26.9% | inhibition in vivo at 100 mg/kg ([6]; SART stress mice): 20.9% | inhibition in vivo at 100 mg/kg ([6]; normal mice): 2.4% | responders at 200 mg/kg ([7]; SART stress mice): 30% | responders at 200 mg/kg ([7]; normal mice): 20% | inhibition in vivo at 150 mg/kg (dd-strain male mice [8]; Mus musculus, ip, 150 mg/kg intraperitoneal): 30.6% | Antiulcerogenic effect on Shay's ulcer (operative ulcer) (Wistar-strain male rats; 100 mg/kg intraperitoneal): 14.6% | Antiulcerogenic effect on Shay's ulcer (operative ulcer) (Wistar-strain male rats; 150 mg/kg intraperitoneal): 26.5% | change in vivo at 100 mg/kg (ddY-strain male mice; Mus musculus, ip): 36.9% | Inhibitory effect on Tremorine-induced tremor (dd-strain male mice [9]; 150 mg/kg intraperitoneal): 33%

CCC1(c2ccc(O)cc2)NC(=O)NC1=O (centres unmarked) [Compound 24, 5-Ethyl-5-(4-hydroxyphenyl)hydantoin]
LD50 at 72 h ([1]; female): > 5000 mg/kg | LD50 at 72 h ([1]; male): > 5000 mg/kg | LD50 at 72 h ([2]; female): > 5000 mg/kg | LD50 at 72 h ([2]; male): > 5000 mg/kg | Heart rate (SART stress mice): 729 ± 58 min⁻¹ | QRS-time (SART stress mice): 13.3 ± 0.9 1/1000 sec | change in vivo at 200 mg/kg ([5]; 1 h, SART stress mice, 60 minutes): 31.2% | change in vivo at 200 mg/kg ([5]; 1 h, normal mice, 60 minutes): 20.4% | Analgesic effect ([10]; SART stress rats, intraperitoneal 100 mg/kg): 50% | Analgesic effect ([10]; normal rats, intraperitoneal 100 mg/kg): 20% | inhibition in vivo at 75 mg/kg (dd-strain male mice [8]; Mus musculus, ip, 75 mg/kg intraperitoneal): 11.9% | inhibition in vivo at 125 mg/kg (dd-strain male mice [8]; Mus musculus, ip, 125 mg/kg intraperitoneal): 27.5% | Antiulcerogenic effect on Shay's ulcer (operative ulcer) (Wistar-strain male rats; 50 mg/kg intraperitoneal): 17.5% | Antiulcerogenic effect on Shay's ulcer (operative ulcer) (Wistar-strain male rats; 100 mg/kg intraperitoneal): 32.2% | Effect of prolongation of sleeping time (ddY-strain male mice; 50 mg/kg intraperitoneal): 42.1% | change in vivo at 100 mg/kg (ddY-strain male mice; Mus musculus, ip): 54.4% | change in vivo at 300 mg/kg (ddY-strain male mice; Mus musculus, ip, 300 mg/kg intraperitoneal): 84.4% | Inhibitory effect on Tremorine-induced tremor (dd-strain male mice [9]; 150 mg/kg intraperitoneal): 40%

O=C1NC(=O)C(c2ccccc2)(c2ccccc2)N1 [DPH, 5,5-diphenylhydantoin, reference compound]
change in vivo at 100 mg/kg ([5]; SART stress mice, comparative drug intraperitoneal 100 mg/kg, average of 30, 60, 90 and 120 minutes): 18.4% | change in vivo at 100 mg/kg ([5]; normal mice, comparative drug intraperitoneal 100 mg/kg, average of 30, 60, 90 and 120 minutes): -33.1% | change in vivo at 500 mg/kg ([5]; SART stress mice, average of 30, 60, 90 and 120 minutes): 17.9% | change in vivo at 500 mg/kg ([5]; normal mice, average of 30, 60, 90 and 120 minutes): 5.9% | inhibition in vivo at 100 mg/kg ([6]; SART stress mice): -6% | inhibition in vivo at 100 mg/kg ([6]; normal mice): -16.3% | responders at 500 mg/kg ([7]; SART stress mice): 0% | responders at 500 mg/kg ([7]; normal mice): 0% | Analgesic effect ([10]; SART stress rats, peroral 500 mg/kg): 0% | Analgesic effect ([10]; normal rats, peroral 500 mg/kg): 0% | Antiulcerogenic effect on Takagi's restraint-plus-water-immersing ulcer (dd-strain male mice [8]; 50 mg/kg intraperitoneal): 7.8% | inhibition in vivo at 100 mg/kg (dd-strain male mice [8]; Mus musculus, ip, 100 mg/kg intraperitoneal): 9% | Rate of antihypertension [11]: 6.6% | Inhibitory effect on Tremorine-induced tremor (dd-strain male mice [9]; 50 mg/kg intraperitoneal): 0% | Inhibitory effect on Tremorine-induced tremor (dd-strain male mice [9]; 100 mg/kg intraperitoneal): 0%

— patent publication US4281009A, “Hydantoin derivatives” (Nippon Zoki Pharmaceutical Co., Ltd., priority 1978, dated 1981)
